Experimental data as given in ChEMBL document CHEMBL4507291 (2021).

Assays:
[1] = molecular target: T1, Mitogen-activated protein kinase kinase kinase 2 (Homo sapiens) (UniProt Q9Y2U5)
T1 sequence (whole entry): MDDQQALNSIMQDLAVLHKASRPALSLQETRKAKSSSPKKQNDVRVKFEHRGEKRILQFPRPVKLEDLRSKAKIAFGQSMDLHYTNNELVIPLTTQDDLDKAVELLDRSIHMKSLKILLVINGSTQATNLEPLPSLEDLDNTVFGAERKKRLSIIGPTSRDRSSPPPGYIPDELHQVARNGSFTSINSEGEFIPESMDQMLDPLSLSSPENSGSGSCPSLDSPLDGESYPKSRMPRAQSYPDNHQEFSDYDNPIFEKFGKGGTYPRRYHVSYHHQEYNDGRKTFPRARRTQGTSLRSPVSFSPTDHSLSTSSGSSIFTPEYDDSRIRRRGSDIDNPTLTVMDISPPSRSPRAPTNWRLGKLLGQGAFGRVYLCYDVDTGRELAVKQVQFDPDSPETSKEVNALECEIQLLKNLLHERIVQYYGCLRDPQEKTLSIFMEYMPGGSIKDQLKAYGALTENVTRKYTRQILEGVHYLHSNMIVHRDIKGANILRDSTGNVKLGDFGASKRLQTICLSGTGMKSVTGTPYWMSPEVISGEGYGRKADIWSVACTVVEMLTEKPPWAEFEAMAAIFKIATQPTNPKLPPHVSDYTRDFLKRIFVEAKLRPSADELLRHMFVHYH

[2] = molecular target: Microtubule-associated serine/threonine-protein kinase 1 (Homo sapiens) (UniProt Q9Y2H9)
[3] = molecular target: 5-hydroxytryptamine receptor 1D (Homo sapiens) (UniProt P28221); conditions: Compound concentration 10.0 uM
[4] = molecular target: TGF-beta receptor type-2 (Homo sapiens) (UniProt P37173)
[5] = molecular target: Serine/threonine-protein kinase Nek11 (Homo sapiens) (UniProt Q8NG66)
[6] = molecular target: Serine/threonine-protein kinase WNK3 (Homo sapiens) (UniProt Q9BYP7)
[7] = molecular target: Death-associated protein kinase 2 (Homo sapiens) (UniProt Q9UIK4)
[8] = molecular target: Cyclin-dependent kinase 4 (Homo sapiens) (UniProt P11802)
[9] = system: Phosphatidylinositol 4,5-bisphosphate 3-kinase catalytic subunit alpha isoform (Homo sapiens), P42336 [E542K]
[10] = molecular target: 5-hydroxytryptamine receptor 2B (Homo sapiens, UniProt P41595); conditions: Compound concentration 10.0 uM
[11] = molecular target: Cyclin-dependent kinase 9 (Homo sapiens) (UniProt P50750)
[12] = molecular target: Mitogen-activated protein kinase 15 (Homo sapiens) (UniProt Q8TD08)
[13] = molecular target: Sodium-dependent noradrenaline transporter (Homo sapiens, UniProt P23975); conditions: Compound concentration 10.0 uM
[14] = system: Hepatocyte growth factor receptor (Homo sapiens), P08581 [Y1235D]
[15] = molecular target: Ephrin type-A receptor 4 (Homo sapiens) (UniProt P54764)
[16] = molecular target: T2, Alpha-1D adrenergic receptor (Homo sapiens) (UniProt P25100); conditions: Compound concentration 10.0 uM
T2 sequence (whole entry): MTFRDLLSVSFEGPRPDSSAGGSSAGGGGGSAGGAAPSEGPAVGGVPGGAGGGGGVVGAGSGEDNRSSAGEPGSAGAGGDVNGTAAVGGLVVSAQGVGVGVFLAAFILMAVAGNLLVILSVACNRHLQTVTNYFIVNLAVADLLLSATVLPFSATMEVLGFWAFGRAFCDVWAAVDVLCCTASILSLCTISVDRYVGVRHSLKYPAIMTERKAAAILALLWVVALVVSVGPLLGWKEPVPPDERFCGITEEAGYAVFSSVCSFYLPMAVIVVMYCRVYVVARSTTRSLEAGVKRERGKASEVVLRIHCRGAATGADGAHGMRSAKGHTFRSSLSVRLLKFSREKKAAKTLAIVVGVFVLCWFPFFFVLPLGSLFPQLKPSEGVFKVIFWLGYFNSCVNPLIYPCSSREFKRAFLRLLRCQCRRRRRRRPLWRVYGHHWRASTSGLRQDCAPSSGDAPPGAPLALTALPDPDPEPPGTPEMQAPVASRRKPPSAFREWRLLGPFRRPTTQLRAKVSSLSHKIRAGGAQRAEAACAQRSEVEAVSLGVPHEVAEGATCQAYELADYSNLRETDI

[17] = system: Epidermal growth factor receptor (Homo sapiens), P00533 [L858R]
[18] = molecular target: Transient receptor potential cation channel subfamily M member 6 (Homo sapiens) (UniProt Q9BX84)
[19] = molecular target: Phosphatidylinositol 4-phosphate 5-kinase type-1 alpha (Homo sapiens) (UniProt Q99755)
[20] = system: Mast/stem cell growth factor receptor Kit (Homo sapiens), P10721 [D816V]
[21] = molecular target: Serine/threonine-protein kinase PAK 2 (Homo sapiens) (UniProt Q13177)
[22] = molecular target: Serine/threonine-protein kinase N2 (Homo sapiens) (UniProt Q16513)
[23] = molecular target: Tyrosine-protein kinase Fgr (Homo sapiens) (UniProt P09769)
[24] = molecular target: Glycogen synthase kinase-3 alpha (Homo sapiens) (UniProt P49840)
[25] = system: Mast/stem cell growth factor receptor Kit (Homo sapiens), P10721 [A829P]
[26] = system: Fibroblast growth factor receptor 3 (Homo sapiens), P22607 [G697C]
[27] = molecular target: Serine/threonine-protein kinase tousled-like 2 (Homo sapiens) (UniProt Q86UE8)
[28] = molecular target: Serine/threonine-protein kinase NIM1 (Homo sapiens) (UniProt Q8IY84)
[29] = molecular target: Serine/threonine-protein kinase Nek6 (Homo sapiens) (UniProt Q9HC98)
[30] = Compound concentration 100.0 nM
[31] = Compound concentration 1000.0 nM

Sequence of Mast/stem cell growth factor receptor Kit (Homo sapiens), P10721 [A829P] (P10721 whole entry A829P): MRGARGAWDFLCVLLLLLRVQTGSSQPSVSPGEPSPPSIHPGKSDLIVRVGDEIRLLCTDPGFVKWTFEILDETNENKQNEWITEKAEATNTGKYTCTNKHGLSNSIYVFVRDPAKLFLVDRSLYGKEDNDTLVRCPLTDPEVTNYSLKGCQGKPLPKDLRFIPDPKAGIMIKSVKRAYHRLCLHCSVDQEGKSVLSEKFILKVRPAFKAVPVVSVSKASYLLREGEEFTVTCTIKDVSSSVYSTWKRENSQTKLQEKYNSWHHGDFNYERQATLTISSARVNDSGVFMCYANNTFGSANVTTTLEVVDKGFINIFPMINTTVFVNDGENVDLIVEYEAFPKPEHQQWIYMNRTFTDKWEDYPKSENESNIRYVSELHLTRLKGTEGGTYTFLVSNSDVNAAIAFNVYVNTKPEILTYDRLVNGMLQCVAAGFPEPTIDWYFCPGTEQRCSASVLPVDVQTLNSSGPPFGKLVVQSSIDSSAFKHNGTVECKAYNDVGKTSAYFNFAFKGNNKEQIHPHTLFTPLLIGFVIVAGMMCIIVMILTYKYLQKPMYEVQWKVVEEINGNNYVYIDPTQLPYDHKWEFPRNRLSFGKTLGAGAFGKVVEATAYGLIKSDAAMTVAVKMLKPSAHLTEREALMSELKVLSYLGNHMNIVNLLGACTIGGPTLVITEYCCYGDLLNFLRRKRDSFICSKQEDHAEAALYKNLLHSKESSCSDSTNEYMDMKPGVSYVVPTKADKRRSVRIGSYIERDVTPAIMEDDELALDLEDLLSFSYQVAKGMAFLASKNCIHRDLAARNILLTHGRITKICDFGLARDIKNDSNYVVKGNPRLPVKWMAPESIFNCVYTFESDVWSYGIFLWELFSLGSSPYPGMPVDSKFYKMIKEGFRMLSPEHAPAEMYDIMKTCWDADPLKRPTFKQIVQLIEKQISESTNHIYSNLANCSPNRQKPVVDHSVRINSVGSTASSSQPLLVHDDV
Sequence of TGF-beta receptor type-2 (Homo sapiens) (P37173 whole entry): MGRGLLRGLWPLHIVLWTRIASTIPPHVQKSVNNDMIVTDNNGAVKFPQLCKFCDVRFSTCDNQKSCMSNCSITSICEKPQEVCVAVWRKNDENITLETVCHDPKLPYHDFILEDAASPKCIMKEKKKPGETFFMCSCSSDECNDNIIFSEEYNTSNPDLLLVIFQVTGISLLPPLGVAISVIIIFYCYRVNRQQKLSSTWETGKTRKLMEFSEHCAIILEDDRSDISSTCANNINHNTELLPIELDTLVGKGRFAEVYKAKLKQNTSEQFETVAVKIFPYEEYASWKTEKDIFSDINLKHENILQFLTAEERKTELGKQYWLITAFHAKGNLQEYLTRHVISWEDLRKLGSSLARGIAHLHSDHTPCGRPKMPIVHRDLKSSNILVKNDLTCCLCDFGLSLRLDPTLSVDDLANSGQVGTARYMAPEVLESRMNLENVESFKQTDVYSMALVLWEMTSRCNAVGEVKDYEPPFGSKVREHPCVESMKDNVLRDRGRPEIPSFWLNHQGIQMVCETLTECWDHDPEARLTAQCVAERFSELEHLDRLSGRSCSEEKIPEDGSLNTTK
Sequence of Serine/threonine-protein kinase Nek6 (Homo sapiens) (Q9HC98 whole entry): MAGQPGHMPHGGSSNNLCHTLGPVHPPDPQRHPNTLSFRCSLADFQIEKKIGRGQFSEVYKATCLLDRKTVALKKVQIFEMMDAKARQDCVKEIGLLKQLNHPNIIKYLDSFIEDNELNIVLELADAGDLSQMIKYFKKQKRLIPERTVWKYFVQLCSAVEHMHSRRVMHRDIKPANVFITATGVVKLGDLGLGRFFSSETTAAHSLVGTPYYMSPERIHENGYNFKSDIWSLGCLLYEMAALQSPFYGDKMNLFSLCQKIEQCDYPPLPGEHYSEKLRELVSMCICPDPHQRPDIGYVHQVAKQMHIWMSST
Sequence of Sodium-dependent noradrenaline transporter (P23975 whole entry): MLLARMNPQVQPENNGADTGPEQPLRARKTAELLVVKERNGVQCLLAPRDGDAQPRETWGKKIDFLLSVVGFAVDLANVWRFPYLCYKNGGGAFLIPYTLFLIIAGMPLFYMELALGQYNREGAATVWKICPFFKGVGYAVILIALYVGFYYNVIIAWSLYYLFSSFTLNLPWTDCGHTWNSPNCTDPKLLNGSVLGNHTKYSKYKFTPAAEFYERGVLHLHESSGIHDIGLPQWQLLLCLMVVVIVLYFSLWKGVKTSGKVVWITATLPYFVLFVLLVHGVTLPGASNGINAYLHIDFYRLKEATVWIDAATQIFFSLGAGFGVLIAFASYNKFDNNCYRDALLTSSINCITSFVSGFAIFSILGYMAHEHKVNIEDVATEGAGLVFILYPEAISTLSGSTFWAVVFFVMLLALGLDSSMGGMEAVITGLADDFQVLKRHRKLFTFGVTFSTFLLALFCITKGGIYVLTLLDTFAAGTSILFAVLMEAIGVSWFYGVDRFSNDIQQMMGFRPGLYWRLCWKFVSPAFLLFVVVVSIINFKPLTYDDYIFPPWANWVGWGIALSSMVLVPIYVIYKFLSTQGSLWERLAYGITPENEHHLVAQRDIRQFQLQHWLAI
Sequence of 5-hydroxytryptamine receptor 2B (P41595 whole entry): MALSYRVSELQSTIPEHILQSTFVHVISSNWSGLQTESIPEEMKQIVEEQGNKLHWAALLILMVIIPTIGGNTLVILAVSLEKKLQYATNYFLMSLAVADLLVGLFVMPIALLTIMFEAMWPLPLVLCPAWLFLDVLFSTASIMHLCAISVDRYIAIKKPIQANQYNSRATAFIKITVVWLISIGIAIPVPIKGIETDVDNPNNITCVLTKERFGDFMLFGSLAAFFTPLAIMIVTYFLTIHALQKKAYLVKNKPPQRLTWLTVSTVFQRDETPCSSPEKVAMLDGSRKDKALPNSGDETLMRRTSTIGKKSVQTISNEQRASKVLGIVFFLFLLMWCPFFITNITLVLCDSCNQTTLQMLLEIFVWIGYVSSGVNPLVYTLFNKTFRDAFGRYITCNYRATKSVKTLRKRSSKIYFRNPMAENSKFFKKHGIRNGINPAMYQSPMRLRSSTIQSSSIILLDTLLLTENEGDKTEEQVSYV
Sequence of Fibroblast growth factor receptor 3 (Homo sapiens), P22607 [G697C] (P22607 whole entry G697C): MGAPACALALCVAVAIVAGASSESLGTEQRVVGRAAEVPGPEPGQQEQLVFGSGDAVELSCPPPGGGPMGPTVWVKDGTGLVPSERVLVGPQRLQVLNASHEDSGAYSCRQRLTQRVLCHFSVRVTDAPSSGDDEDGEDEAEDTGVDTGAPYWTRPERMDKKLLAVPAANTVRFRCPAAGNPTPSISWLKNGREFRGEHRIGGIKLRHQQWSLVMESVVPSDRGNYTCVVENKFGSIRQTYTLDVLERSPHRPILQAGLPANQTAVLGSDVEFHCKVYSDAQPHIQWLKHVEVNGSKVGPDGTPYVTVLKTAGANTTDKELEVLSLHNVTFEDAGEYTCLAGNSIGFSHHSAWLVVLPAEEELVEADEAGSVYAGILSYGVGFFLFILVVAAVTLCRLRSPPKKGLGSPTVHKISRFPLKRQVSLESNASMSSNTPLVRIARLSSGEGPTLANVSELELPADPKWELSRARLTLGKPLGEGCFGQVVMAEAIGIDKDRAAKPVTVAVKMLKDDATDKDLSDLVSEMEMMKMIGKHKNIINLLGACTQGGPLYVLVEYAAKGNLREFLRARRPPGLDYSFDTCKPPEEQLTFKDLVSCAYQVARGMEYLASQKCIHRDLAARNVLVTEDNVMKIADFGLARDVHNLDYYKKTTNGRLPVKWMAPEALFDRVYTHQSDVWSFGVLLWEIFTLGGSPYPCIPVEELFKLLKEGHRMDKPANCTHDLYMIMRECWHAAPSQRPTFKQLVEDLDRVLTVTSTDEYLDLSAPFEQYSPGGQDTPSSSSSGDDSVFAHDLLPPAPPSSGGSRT
Sequence of Mitogen-activated protein kinase 15 (Homo sapiens) (Q8TD08 whole entry): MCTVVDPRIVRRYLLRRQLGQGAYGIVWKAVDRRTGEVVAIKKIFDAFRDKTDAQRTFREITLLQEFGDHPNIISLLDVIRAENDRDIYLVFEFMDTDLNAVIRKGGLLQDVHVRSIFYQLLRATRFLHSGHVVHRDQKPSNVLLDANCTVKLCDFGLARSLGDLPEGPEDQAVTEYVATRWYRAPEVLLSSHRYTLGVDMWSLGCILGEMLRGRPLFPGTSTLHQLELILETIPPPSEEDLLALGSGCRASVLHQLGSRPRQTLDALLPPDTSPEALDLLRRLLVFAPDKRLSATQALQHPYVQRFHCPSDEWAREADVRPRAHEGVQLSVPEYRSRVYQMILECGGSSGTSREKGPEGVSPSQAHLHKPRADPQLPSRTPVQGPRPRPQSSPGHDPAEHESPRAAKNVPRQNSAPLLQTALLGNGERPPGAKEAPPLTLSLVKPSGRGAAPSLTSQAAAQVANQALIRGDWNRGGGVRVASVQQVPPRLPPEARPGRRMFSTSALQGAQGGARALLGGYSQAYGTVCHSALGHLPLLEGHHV
Sequence of Cyclin-dependent kinase 4 (Homo sapiens) (P11802 whole entry, canonical isoform): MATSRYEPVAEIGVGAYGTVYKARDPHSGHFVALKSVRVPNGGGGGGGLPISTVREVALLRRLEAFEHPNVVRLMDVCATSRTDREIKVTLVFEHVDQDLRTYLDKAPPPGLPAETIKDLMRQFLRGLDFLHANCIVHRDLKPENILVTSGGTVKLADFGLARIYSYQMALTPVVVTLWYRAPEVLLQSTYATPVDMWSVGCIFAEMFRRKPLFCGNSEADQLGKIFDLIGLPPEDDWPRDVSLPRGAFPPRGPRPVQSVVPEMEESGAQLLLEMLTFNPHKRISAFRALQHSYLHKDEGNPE
Sequence of 5-hydroxytryptamine receptor 1D (Homo sapiens) (P28221 whole entry): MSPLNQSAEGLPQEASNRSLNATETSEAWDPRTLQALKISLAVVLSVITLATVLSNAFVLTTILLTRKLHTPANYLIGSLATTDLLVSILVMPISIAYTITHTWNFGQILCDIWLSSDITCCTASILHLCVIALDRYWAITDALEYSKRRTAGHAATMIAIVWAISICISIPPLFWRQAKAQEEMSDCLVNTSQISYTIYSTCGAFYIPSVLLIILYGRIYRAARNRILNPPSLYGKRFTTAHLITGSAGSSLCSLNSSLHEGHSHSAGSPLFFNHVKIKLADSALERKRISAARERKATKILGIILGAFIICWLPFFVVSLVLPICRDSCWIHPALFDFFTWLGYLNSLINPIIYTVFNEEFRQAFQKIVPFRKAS

C[C@@H]1CN(c2cc(-c3n[nH]c4ccc(OC5(C)CC5)cc34)ncn2)C[C@H](C)O1 [MLi-2]
inactive: residual activity [1, 30] 73% | residual activity [2, 30] 70% | inhibition [3] -7.94% | residual activity [4, 30] 100% | residual activity [5, 30] 100% | residual activity [6, 30] 73% | residual activity [7, 30] 85% | residual activity [8, 30] 71% | residual activity [9, 30] 81% | inhibition [10] 41.4% | residual activity [11, 30] 80% | residual activity [12, 30] 81% | inhibition [13] 7.45% | residual activity [14, 30] 92% | residual activity [15, 30] 89% | inhibition [16] 3.26% | residual activity [17, 30] 82% | residual activity [18, 30] 64% | residual activity [19, 30] 100% | residual activity [20, 30] 79% | residual activity [21, 30] 95% | residual activity [22, 30] 89% | residual activity [23, 30] 89% | residual activity [24, 30] 100% | residual activity [25, 30] 62% | residual activity [26, 30] 86% | residual activity [27, 30] 100% | residual activity [28, 30] 72% | residual activity [29, 30] 100%

C[C@@H]1CN(c2cc(-c3nn(C)c4ccc(OC5(C)CC5)cc34)ncn2)C[C@H](C)O1 [MLi-2-NC]
active: residual activity [9, 31] 32%
inactive: residual activity [1, 31] 83% | residual activity [2, 31] 100% | inhibition [3] 4.11% | residual activity [4, 31] 73% | residual activity [5, 31] 58% | residual activity [6, 31] 91% | residual activity [7, 31] 89% | residual activity [8, 31] 91% | inhibition [10] 26.7% | residual activity [11, 31] 84% | residual activity [12, 31] 72% | inhibition [13] 30.6% | residual activity [14, 31] 87% | residual activity [15, 31] 100% | inhibition [16] 10.2% | residual activity [17, 31] 95% | residual activity [18, 31] 85% | residual activity [19, 31] 100% | residual activity [20, 31] 94% | residual activity [21, 31] 90% | residual activity [22, 31] 100% | residual activity [23, 31] 90% | residual activity [24, 31] 86% | residual activity [25, 31] 60% | residual activity [26, 31] 100% | residual activity [27, 31] 97% | residual activity [28, 31] 74% | residual activity [29, 31] 100%
